Assay results taken from the PolyMetriX glass transition set.

| glass transition temperature [°C] | SMILES |
| --- | --- |
| 275.00 | *C(=O)Nc1ccc(Oc2ccc(Oc3ccc(NC(=O)c4ccc5c(c4)C(=O)N(c4ccc(Oc6ccc(C7(c8ccc(Oc9ccc(N%10C(=O)c%11ccc(*)cc%11C%10=O)cc9)cc8)CC8CC7C7CCCC87)cc6)cc4)C5=O)cc3)c(C(C)(C)C)c2)cc1 (repeat unit) |
| 220.00 | *C(=O)Nc1ccc(Oc2cccc(Oc3ccc(NC(=O)c4ccc5c(c4)C(=O)N(c4ccc(Oc6cccc(Oc7ccc(N8C(=O)c9ccc(*)cc9C8=O)cc7)c6C#N)cc4)C5=O)cc3)c2C#N)cc1 (repeat unit) |
| 360.00 | *C(=O)Oc1ccc(OC(=O)c2ccc3c(c2)C(=O)N(C2CCC(N4C(=O)c5ccc(*)cc5C4=O)CC2)C3=O)cc1 (repeat unit) |
| 64.00 | *CCCCCCCCCCOc1ccc(OC(=O)c2ccc(OCCOCCOCCOc3ccc(C(=O)Oc4ccc(O*)cc4)cc3)cc2)cc1 (repeat unit) |
| 53.00 | *CCCCCCOc1ccc(OC(=O)c2ccc(C(=O)Oc3ccc(O*)cc3)cc2)cc1 (repeat unit) |
| 71.00 | *CCCOCCCCOCCCN1C(=O)c2ccc(C(=O)Oc3ccc(OC(=O)c4ccc5c(c4)C(=O)N(*)C5=O)c(-c4ccccc4)c3)cc2C1=O (repeat unit) |
| 105.00 | *CCOCCOCCN1C(=O)c2ccc(C(=O)Oc3ccc(OC(=O)c4ccc5c(c4)C(=O)N(*)C5=O)cc3)cc2C1=O (repeat unit) |
| 127.00 | *OS(=O)(=O)c1cccc(S(=O)(=O)Oc2ccc(C3(c4ccc(*)cc4)CCCCC3)cc2)c1 (repeat unit) |
| 35.00 | *O[Si](C)(C)CCCCCCOC(=O)C(C)Oc1ccc(OC(=O)c2ccc(-c3ccc(OCCCCCCCCCC[Si](*)(C)C)cc3)cc2)cc1 (repeat unit) |
| 20.00 | *O[Si](C)(C)CCCCCCOC(=O)C(C)Oc1ccc(OC(=O)c2ccc(-c3ccc(OCCCCCCCCCC[Si](*)(C)C)cc3)cc2)cc1[N+](=O)[O-] (repeat unit) |
| 166.00 | *O[Si](Oc1ccc(C2(c3ccc(*)cc3)c3ccccc3-c3ccccc32)cc1)(c1ccccc1)c1ccccc1 (repeat unit) |
| 333.00 | *Oc1c(C)c(C)c(NC(=O)c2ccc(C(=O)Nc3ccc(*)cc3)cc2)c(C)c1C (repeat unit) |
| 94.00 | *Oc1c(F)c(F)c(COC(c2cccc(C(OCc3c(F)c(F)c(Oc4ccc(Cc5ccc(*)cc5)cc4)c(F)c3F)(C(F)(F)F)C(F)(F)F)c2)(C(F)(F)F)C(F)(F)F)c(F)c1F (repeat unit) |
| 123.00 | *Oc1ccc(C(=O)c2ccc(Oc3ccc(C(=O)c4ccc(Oc5cccc(Cc6cccc(*)c6)c5)cc4)cc3)cc2)cc1 (repeat unit) |
| 179.00 | *Oc1ccc(C2(c3ccc(OC(*)=O)c(Cl)c3)CCCCC2)cc1Cl (repeat unit) |
| 235.00 | *Oc1ccc(C2(c3ccc(OC(*)=O)cc3)CC3CCC2C3)cc1 (repeat unit) |
| 155.00 | *Oc1ccc(C2(c3ccc(OC(*)=O)cc3)CCCCCC2)cc1 (repeat unit) |
| 219.00 | *Oc1ccc(C2(c3ccc(OC(*)=O)cc3)CCc3ccccc32)cc1 (repeat unit) |
| 400.00 | *Oc1ccc(C2(c3ccc(OC(=O)c4ccc(C(*)=O)cc4)cc3)c3ccccc3C(=O)c3ccccc32)cc1 (repeat unit) |

| glass transition temperature [°C] | SMILES |
| --- | --- |
| 248.00 | *Oc1ccc(C2(c3ccc(OC(=O)c4cccc(C(*)=O)c4)cc3)CCC3CCCCC3C2)cc1 (repeat unit) |
| 79.50 | *Oc1ccc(Cc2ccc(Cc3ccc(OC(*)=O)cc3)cc2)cc1 (repeat unit) |
| 95.00 | *Oc1ccc(Cc2ccc(OC(*)=S)cc2)cc1 (repeat unit) |
| 137.00 | *Oc1ccc(OC(=O)c2cc(OCCCCCCCCCCC(F)(F)C(F)(F)C(F)(F)C(F)(F)C(F)(F)C(F)(F)C(F)(F)C(F)(F)C(F)(F)C(F)(F)F)cc(C(*)=O)c2)cc1 (repeat unit) |
| 30.00 | *Oc1ccc(OC(=O)c2cc(OCCCCCCCCCCOCC3CCCN3c3ccc([N+](=O)[O-])cc3)c(C(*)=O)cc2OCCCCCCCCCCOCC2CCCN2c2ccc([N+](=O)[O-])cc2)cc1 (repeat unit) |
| 56.00 | *Oc1ccc(OC(=O)c2cc(OCCCCCCOCC3CCCN3c3ccc([N+](=O)[O-])cc3)c(C(*)=O)cc2OCCCCCCOCC2CCCN2c2ccc([N+](=O)[O-])cc2)cc1 (repeat unit) |
| 63.00 | *Oc1ccc(OC(=O)c2cc(OCCCCCOCC3CCCN3c3ccc([N+](=O)[O-])cc3)c(C(*)=O)cc2OCCCCCOCC2CCCN2c2ccc([N+](=O)[O-])cc2)cc1 (repeat unit) |
| 165.00 | *Oc1ccc(OC(=O)c2ccc(-c3ccc(C(*)=O)cc3)cc2-c2ccccc2)c2ccccc12 (repeat unit) |
| 148.00 | *Oc1ccc(OC(=O)c2ccc(-c3ccc(C(*)=O)cc3)cc2-c2ccccc2)cc1-c1ccccc1 (repeat unit) |
| 213.00 | *Oc1ccc(OC(=O)c2ccc(C(*)=O)cc2)cc1C1CCCCCCC1 (repeat unit) |
| 117.00 | *Oc1ccc(OC(=O)c2ccc(C(*)=O)cc2Oc2ccc(-c3ccccc3)cc2)cc1 (repeat unit) |
| 108.00 | *Oc1ccc(OC(=O)c2ccc(C(*)=O)cc2Oc2ccc(Br)cc2)cc1 (repeat unit) |
| 107.00 | *Oc1ccc(OC(=O)c2ccc(C(*)=O)cc2Oc2ccc(Cl)cc2)cc1 (repeat unit) |
| 140.00 | *Oc1ccc(OC(=O)c2ccc(C(*)=O)cc2Sc2ccc(Cl)cc2)cc1 (repeat unit) |
| 148.00 | *Oc1ccc(OC(=O)c2ccc(C(*)=O)cc2Sc2ccc3ccccc3c2)cc1 (repeat unit) |
| 119.00 | *Oc1ccc(OC(=O)c2cccc(Oc3cccc(C(*)=O)c3)c2)cc1 (repeat unit) |
| 208.00 | *Oc1ccc(Oc2ccc(NC(=O)c3cccc(C(=O)Nc4ccc(*)cc4)c3)cc2)cc1C(C)(C)C (repeat unit) |
| 186.00 | *Oc1ccc(Oc2ccc(S(=O)(=O)c3ccc(Oc4ccc(C(=O)c5ccc(*)cc5)cc4)cc3)cc2)cc1 (repeat unit) |
| 206.00 | *Oc1ccc(S(=O)(=O)c2ccc(Oc3ccc(-c4ccc(Oc5ccc(C(=O)c6ccc(*)cc6)cc5)cc4)cc3)cc2)cc1 (repeat unit) |

| glass transition temperature [°C] | SMILES |
| --- | --- |
| 199.00 | *Oc1ccc2cc(Oc3ccc(S(=O)(=O)c4ccc(Oc5ccc(C(=O)c6ccc(*)cc6)cc5)cc4)cc3)ccc2c1 (repeat unit) |
| 146.00 | *Oc1cccc(C(=O)c2ccc(Oc3ccc(C(=O)c4ccc(*)cc4)cc3)cc2)c1 (repeat unit) |
| 232.00 | *c1ccc(Cc2ccc(N3C(=O)c4ccc(Oc5ccc(C6(c7ccc(Oc8ccc9c(c8)C(=O)N(*)C9=O)cc7)CCC(c7ccccc7)CC6)cc5)cc4C3=O)cc2)cc1 (repeat unit) |
| 240.00 | *c1ccc(Cc2ccc(N3C(=O)c4ccc(Oc5ccc(C6(c7ccc(Oc8ccc9c(c8)C(=O)N(*)C9=O)cc7)CCCCCCCCCCC6)cc5)cc4C3=O)cc2)cc1 (repeat unit) |
| 252.20 | *c1ccc(OC(=O)Oc2ccc(C3(*)OC(=O)c4ccccc43)cc2)cc1 (repeat unit) |
| 252.00 | *c1ccc(OC(=O)c2ccc(C(=O)Oc3ccc(C4(*)c5ccccc5Oc5ccccc54)cc3)cc2)cc1 (repeat unit) |
| 250.00 | *c1ccc(OC(=O)c2ccc([Si](c3ccccc3)(c3ccccc3)c3ccc(C(=O)Oc4ccc(C5(*)OC(=O)c6ccccc65)cc4)cc3)cc2)cc1 (repeat unit) |
| 270.00 | *c1ccc(OC(=O)c2cccc(C(=O)Oc3ccc(C4(*)C(=O)Nc5c(Cl)cc(Cl)cc54)cc3)c2)cc1 (repeat unit) |
| 293.00 | *c1ccc(Oc2cc(C(C)(C)C)c(Oc3ccc(N4C(=O)c5ccc(-c6ccc7c(c6)C(=O)N(*)C7=O)cc5C4=O)cc3)cc2C(C)(C)C)cc1 (repeat unit) |
| 242.00 | *c1ccc(Oc2cc(C(C)(C)C)c(Oc3ccc(N4C(=O)c5ccc(Oc6ccc7c(c6)C(=O)N(*)C7=O)cc5C4=O)cc3)cc2C(C)(C)C)cc1 (repeat unit) |
| 263.00 | *c1ccc(Oc2cc(C(C)(C)C)c(Oc3ccc(N4C(=O)c5ccc(S(=O)(=O)c6ccc7c(c6)C(=O)N(*)C7=O)cc5C4=O)cc3)cc2C(C)(C)C)cc1 (repeat unit) |
| 257.00 | *c1ccc(Oc2cc(C(C)(C)C)ccc2Oc2ccc(N3C(=O)c4ccc(-c5ccc6c(c5)C(=O)N(*)C6=O)cc4C3=O)cc2)cc1 (repeat unit) |
| 255.00 | *c1ccc(Oc2ccc(C3(c4ccc(Oc5ccc(N6C(=O)c7ccc(Oc8ccc(C9(c%10ccc(Oc%11ccc%12c(c%11)C(=O)N(*)C%12=O)cc%10)CCC(c%10ccccc%10)CC9)cc8)cc7C6=O)cc5)cc4)CC4CC3C3CCCC43)cc2)cc1 (repeat unit) |
| 210.00 | *c1ccc(Oc2ccc(N3C(=O)c4ccc(Oc5ccc(C(=O)c6ccc(Oc7ccc8c(c7)C(=O)N(*)C8=O)cc6)cc5)cc4C3=O)cc2)cc1 (repeat unit) |
| 229.00 | *c1ccc(Oc2ccc(Oc3ccc(N4C(=O)c5ccc(Oc6ccc(C(c7ccccc7)(c7ccccc7)c7ccc(Oc8ccc9c(c8)C(=O)N(*)C9=O)cc7)cc6)cc5C4=O)cc3)c(C(C)(C)C)c2)cc1 (repeat unit) |
| 233.00 | *c1ccc(Oc2ccc(Oc3ccc(N4C(=O)c5ccc(Oc6ccc(C7(c8ccc(Oc9ccc%10c(c9)C(=O)N(*)C%10=O)cc8)CCC(C(C)(C)C)CC7)cc6)cc5C4=O)cc3)c(C(C)(C)C)c2)cc1 (repeat unit) |
| 271.00 | *c1ccc(Oc2cccc(Oc3ccc(N4C(=O)c5ccc(-c6ccc7c(c6)C(=O)N(*)C7=O)cc5C4=O)cc3)c2C#N)cc1 (repeat unit) |
| 202.00 | *c1ccc2c(c1)C(=O)N(c1ccc(Oc3ccc(N4C(=O)c5ccc(C(*)(C(F)(F)F)C(F)(F)F)cc5C4=O)cc3)c(OCCN(CC)c3ccc(/N=N/c4ccc([N+](=O)[O-])cc4)cc3)c1)C2=O (repeat unit) |
